What was measured:
[1] = AlamarBlue cytotoxicity, BMDM; type: cell-based; details: bone marrow-derived macrophages (BMDM)
Experimental: (§1) BMDM were generated in complete RPMI medium as described previously. On day six, the cytotoxicity against 2 × 10^5 cells/ml was tested at increasing concentrations of compounds 1 and 2 for 48 h. Human embryonic kidney HEK 293 T cells (ATCC, Wesel, Germany) were cultured in Dulbecco´s Modified Eagle Medium (DMEM) (Life Technologies, Darmstadt, Germany), with 10% FCS (PAA Laboratories, Germany). According to the standard operating procedures (SOP) within the Collaborative Research Center 630 (SFB 630) 2 × 10^4 HEK 293 T cells/ml were tested at increasing concentrations of compounds 1 and 2 for 48 h. Human liver carcinoma HepG2 cells (ATCC) were cultured in RPMI medium (Gibco) with 10% FCS. 1 × 10^5 cells/ml HepG2 were tested at increasing concentrations of 1 and 2 for 72 h according to the SOPs. The AlamarBlue assay was performed as described above for L. major parasites.

L. major promastigotes [2] = experiment: Diff-Quik staining and transmitted light microscopy, cell morphology; type: cell-based, Leishmania major; details: 100 μM
Experimental: (§2) L. major parasites harvested from blood agar cultures were washed twice with Dulbecco’s phosphate-buffered saline (DPBS; Invitrogen, Darmstadt, Germany) and centrifuged at 3.000 × g for 10 min. The pellet was suspended in RPMI 1640 medium at a final concentration of 1 × 10^8 cells/ml. Cells were treated with 1% DMSO, 122.7 μM miltefosine (1-hexadecylphorylcholine; apoptosis inducer), or 100 μM of the tested compounds 1 and 2 in a final volume of 200 μl in 96 well plates. Samples were incubated at 27°C in 5% CO2 for several time points between 30 min and 24 h. Transmitted light microscopic, transmission electron microscopic (TEM), and flow cytometric techniques were used to find phenotypic patterns caused by the treatment with the tested compounds.
After incubation for 30 min, 1 h, 2 h, 4 h, and 24 h in the presence of the tested compounds 1 and 2, promastigotes were harvested and centrifuged in a Cytospin 3 centrifuge (Shandon, Frankfurt, Germany) on microscope slides at 253 × g for 5 min at room temperature (RT). Cytospin preparations of cells were stained using the Differential Quick Stain (Diff-Quik) dye (Medion Diagnostics AG, Duedingen, Switzerland), according to the manufacturers’ protocol with some modifications. Diff-Quik stains the leishmanial nuclei and the kinetoplasts dark purple and the cytoplasm light purple allowing the observation of phenotypic changes within the parasite. Briefly, air-dried cells were fixed by dipping the slides 5 times for 3 seconds in fixative solution. Subsequently the slides were stained with Solution I following Solution II (from Diff-Quik kit) and air-dried between each staining steps. Finally, the samples were rapidly dipped once in ultra-pure water (produced by a TKA purification system apparatus, Niederelbert, Germany) to remove excessive staining solutions. The air-dried cells were analyzed by transmitted light microscopy under a 50× objective on a Nikon ECLIPSE 50i microscope equipped with a digital camera (Nikon, Tokyo, Japan). The images were processed using NIS Elements D software (Nikon).

[3] = AlamarBlue cytotoxicity, HepG2 cells; type: cell-based; details: human, read-out: Cytotoxicity (μM) HEP G2
Experimental: as §1

L. major amastigotes = experiment: microbe, parasite or virus in culture; type: cell-based; details: Leishmania major; intracellular amastigotes in BMDM, 24 h; read-out: Cytotoxicity (μM) L. major amastigotes (IC50)
Experimental: Luciferase-transgenic (Luc-tg) L. major has been generated as described previously. The virulence of Luc-tg L. major was maintained by passage in female BALB/c mice and promastigotes were grown in vitro in blood agar cultures with addition of 50 μg/mL hygromycin B using the same conditions as described above.
A detailed protocol of antileishmanial investigations against intracellular L. major amastigotes residing within bone marrow-derived macrophages (BMDM) is described elsewhere. Briefly, 2 × 10^5/ml BMDM were infected with Luc-tg L. major promastigotes at a ratio of 1:15 for 24 h. These infected BMDM were cultured in the absence or presence of increasing concentrations of the tested compounds 1 and 2 for 24 h prior to the supplement of Britelite plus (PerkinElmer, Waltham, MA, USA) for 5 min. Britelite plus is a very sensitive assay for the quantification of firefly luciferase in Leishmania parasites. The luminescence was measured using a Victor X Light 2030 luminometer (PerkinElmer, Waltham, MA, USA).

L. major promastigotes [4] = experiment: Transmission electron microscopy, mitochondrial swelling; type: cell-based, Leishmania major; details: 100 μM, 2 h
Experimental: as §2
L. major promastigotes were incubated for 2 h in the presence of DMSO, 100 μM of compound 1 and compound 2, respectively. After the incubation period, the parasites were harvested, contrasted and embedded following the procedure described previously. Ultrathin sections were mounted on 300-mesh grids, stained with uranyl acetate and lead citrate, and analyzed with an EM 10 transmission electron microscope (Carl Zeiss AG, Oberkochen, Germany). To describe morphological changes in a statistical manner, six photographs with approximately 50 cells were taken and the percentage of cells with swollen mitochondria per treatment was determined.

[5] = AlamarBlue cytotoxicity, HEK 293 T cells; type: cell-based; details: human
Experimental: as §1

L. major promastigotes [6] = experiment: MitoTracker Red CMXRos staining, flow cytometry; type: cell-based, Leishmania major; details: 100 μM
Experimental: L. major promastigotes were harvested from blood-agar cultures and washed twice with DPBS (900 × g for 5 min at RT). 2 × 10^6 promastigotes were dissolved in 180 μl RPMI complete medium and seeded in a 96 well plate. Parasites were incubated with 20 μL of compound 1 (final concentration: 100 μM), compound 2 (final concentration: 100 μM) and with 20 μL of DMSO, respectively, for 30 min, 45 min, 60 min, or 120 min at 27°C in a 5% CO2. After incubation 2 μl of MitoTracker Red CMXRos (final concentration: […]) (Life Technologies, Darmstadt, Germany) was added for 15 min at 27°C. Samples were directly acquired using a MACSQuant Analyzer (Miltenyi Biotech, Bergisch Gladbach, Germany) and MitoTracker-positive parasites were analyzed using MACS Quant Analyzing software.

Compound	IC50 at 48 h [1]	Time after which vacuolization and changes in cell morphology were observable (L. major promastigotes [2])	IC50 at 72 h [3]	IC50 (L. major amastigotes)	Counted parasites with mitochondrial swelling (TEM) (L. major promastigotes [4])	IC50 at 48 h [5]	MitoTracker-positive cells, percentage of DMSO control (100%) (L. major promastigotes [6]; 60 min)	MitoTracker-positive cells, percentage of DMSO control (100%) (L. major promastigotes [6]; 120 min)
CC1(C)C2CCC1(C)C(OC(=O)C=Cc1ccccc1)C2 (single isomer, unassigned; (-)) [Compound 1, (-)-Bornyl cinnamate]	54.3 µM	30 min	> 100 µM	10.9 µM	39%	83.1 µM	75%	63%
CC1(C)C2CCC1(C)C(OC(=O)CCc1ccccc1)C2 (single isomer, unassigned; (-)) [Compound 2, (-)-bornyl 3-phenylpropionate]	> 100 µM	1 h	> 100 µM	89.1 µM	36%	> 100 µM	75.2%	60.2%
